Experiments:
Assay in all cases: relative viability (nuclei count vs DMSO), 5 days (fraction); higher = more cells survive
NCI-H1944 = system: NCI-H1944
Method in brief: (§1)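 Medians of duplicate plates are given as relative viability. That measure is the nuclei count in treated wells divided by the count in vehicle wells. Counts were taken on 4× images of lung cancer cell lines in 1536-well plates, 5 days after pin-tool dosing the day after seeding with one drug alone or a fixed anchor-drug dose plus five library-drug doses (not always all listed) in √10 steps.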

HCC-827 = system: HCC-827
Method in brief: as §1

SW 1573 = system: SW 1573
Method in brief: as §1

NCI-H1993 = system: NCI-H1993
Method in brief: as §1

NCI-H2023 = system: NCI-H2023
Method in brief: as §1

LCLC-103H = system: LCLC-103H
Method in brief: as §1

NCI-H1792 = system: NCI-H1792
Method in brief: as §1

SW 900 = system: SW 900
Method in brief: as §1

LOU-NH91 = system: LOU-NH91
Method in brief: as §1

NCI-H1975 = system: NCI-H1975
Method in brief: as §1

A-427 = system: A-427
Method in brief: as §1

SK-MES-1 = system: SK-MES-1
Method in brief: as §1

H3255 = system: H3255
Method in brief: as §1

NCI-H520 = system: NCI-H520
Method in brief: as §1

NCI-H2170 = system: NCI-H2170
Method in brief: as §1

NCI-H1793 = system: NCI-H1793
Method in brief: as §1

LXF-289 = system: LXF-289
Method in brief: as §1

NCI-H358 = system: NCI-H358
Method in brief: as §1

NCI-H2087 = system: NCI-H2087
Method in brief: as §1

NCI-H522 = system: NCI-H522
Method in brief: as §1

COR-L 105 = system: COR-L 105
Method in brief: as §1

NCI-H1915 = system: NCI-H1915
Method in brief: as §1

Cc1csc(=NC2CCCCC2)n1/N=C/c1ccc(O)c(O)c1O [MIM1] + Cc1nc(Nc2ncc(C(=O)Nc3c(C)cccc3Cl)s2)cc(N2CCN(CCO)CC2)n1 [Dasatinib] (partner 0.075 µM)
relative viability (NCI-H1944; first compound 0.2 µM): 0.214
relative viability (NCI-H1944; first compound 0.6325 µM): 0.204
relative viability (NCI-H1944; first compound 2 µM): 0.21
relative viability (NCI-H1944; first compound 6.325 µM): 0.191
relative viability (NCI-H1944; first compound 20 µM): 0.176
relative viability (HCC-827; first compound 0.2 µM): 0.376
relative viability (HCC-827; first compound 0.6325 µM): 0.308
relative viability (HCC-827; first compound 2 µM): 0.259
relative viability (HCC-827; first compound 6.325 µM): 0.348
relative viability (HCC-827; first compound 20 µM): 0.488
relative viability (SW 1573; first compound 0.2 µM): 0.557
relative viability (SW 1573; first compound 0.6325 µM): 0.558
relative viability (SW 1573; first compound 2 µM): 0.413
relative viability (SW 1573; first compound 6.325 µM): 0.244
relative viability (SW 1573; first compound 20 µM): 0.0901
relative viability (NCI-H1993; first compound 0.2 µM): 0.349
relative viability (NCI-H1993; first compound 0.6325 µM): 0.57
relative viability (NCI-H1993; first compound 2 µM): 0.545
relative viability (NCI-H1993; first compound 6.325 µM): 0.484
relative viability (NCI-H1993; first compound 20 µM): 0.411
relative viability (NCI-H2023; first compound 0.2 µM): 0.519
relative viability (NCI-H2023; first compound 0.6325 µM): 0.719
relative viability (NCI-H2023; first compound 2 µM): 0.435
relative viability (NCI-H2023; first compound 6.325 µM): 0.249
relative viability (NCI-H2023; first compound 20 µM): 0.0702
relative viability (LCLC-103H; first compound 0.2 µM): 0.422
relative viability (LCLC-103H; first compound 0.6325 µM): 0.519
relative viability (LCLC-103H; first compound 2 µM): 0.512
relative viability (LCLC-103H; first compound 6.325 µM): 0.401
relative viability (LCLC-103H; first compound 20 µM): 0.364
relative viability (NCI-H1792; first compound 0.2 µM): 0.786
relative viability (NCI-H1792; first compound 0.6325 µM): 0.661
relative viability (NCI-H1792; first compound 2 µM): 0.716
relative viability (NCI-H1792; first compound 6.325 µM): 0.757
relative viability (NCI-H1792; first compound 20 µM): 0.808
relative viability (SW 900; first compound 0.2 µM): 0.619
relative viability (SW 900; first compound 0.6325 µM): 0.804
relative viability (SW 900; first compound 2 µM): 0.508
relative viability (SW 900; first compound 6.325 µM): 0.449
relative viability (SW 900; first compound 20 µM): 0.23
relative viability (LOU-NH91; first compound 0.2 µM): 0.502
relative viability (LOU-NH91; first compound 0.6325 µM): 0.529
relative viability (LOU-NH91; first compound 2 µM): 0.537
relative viability (LOU-NH91; first compound 6.325 µM): 0.497
relative viability (LOU-NH91; first compound 20 µM): 0.365
relative viability (NCI-H1975; first compound 0.2 µM): 0.355
relative viability (NCI-H1975; first compound 0.6325 µM): 0.377
relative viability (NCI-H1975; first compound 2 µM): 0.346
relative viability (NCI-H1975; first compound 6.325 µM): 0.185
relative viability (NCI-H1975; first compound 20 µM): 0.17
relative viability (A-427; first compound 0.2 µM): 0.664
relative viability (A-427; first compound 2 µM): 0.716
relative viability (A-427; first compound 6.325 µM): 0.573
relative viability (A-427; first compound 20 µM): 0.178
relative viability (SK-MES-1; first compound 0.2 µM): 0.369
relative viability (SK-MES-1; first compound 0.6325 µM): 0.371
relative viability (SK-MES-1; first compound 2 µM): 0.259
relative viability (SK-MES-1; first compound 6.325 µM): 0.27
relative viability (SK-MES-1; first compound 20 µM): 0.367
relative viability (H3255; first compound 0.2 µM): 0.339
relative viability (H3255; first compound 0.6325 µM): 0.343
relative viability (H3255; first compound 2 µM): 0.334
relative viability (H3255; first compound 6.325 µM): 0.344
relative viability (H3255; first compound 20 µM): 0.255
relative viability (NCI-H520; first compound 0.2 µM): 0.19
relative viability (NCI-H520; first compound 0.6325 µM): 0.21
relative viability (NCI-H520; first compound 2 µM): 0.286
relative viability (NCI-H520; first compound 6.325 µM): 0.18
relative viability (NCI-H520; first compound 20 µM): 0.192
relative viability (NCI-H2170; first compound 0.2 µM): 0.569
relative viability (NCI-H2170; first compound 0.6325 µM): 0.498
relative viability (NCI-H2170; first compound 2 µM): 0.73
relative viability (NCI-H2170; first compound 6.325 µM): 0.382
relative viability (NCI-H2170; first compound 20 µM): 0.172
relative viability (NCI-H1793; first compound 0.2 µM): 0.417
relative viability (NCI-H1793; first compound 2 µM): 0.372
relative viability (NCI-H1793; first compound 6.325 µM): 0.359
relative viability (NCI-H1793; first compound 20 µM): 0.31
relative viability (LXF-289; first compound 0.2 µM): 0.224
relative viability (LXF-289; first compound 0.6325 µM): 0.174
relative viability (LXF-289; first compound 2 µM): 0.194
relative viability (LXF-289; first compound 6.325 µM): 0.275
relative viability (LXF-289; first compound 20 µM): 0.177
relative viability (NCI-H358; first compound 0.2 µM): 0.182
relative viability (NCI-H358; first compound 0.6325 µM): 0.174
relative viability (NCI-H358; first compound 2 µM): 0.179
relative viability (NCI-H358; first compound 6.325 µM): 0.173
relative viability (NCI-H358; first compound 20 µM): 0.126
relative viability (NCI-H2087; first compound 0.2 µM): 0.884
relative viability (NCI-H2087; first compound 0.6325 µM): 0.843
relative viability (NCI-H2087; first compound 2 µM): 1.02
relative viability (NCI-H2087; first compound 6.325 µM): 0.685
relative viability (NCI-H2087; first compound 20 µM): 0.625
relative viability (NCI-H522; first compound 0.2 µM): 0.788
relative viability (NCI-H522; first compound 0.6325 µM): 0.698
relative viability (NCI-H522; first compound 2 µM): 0.93
relative viability (NCI-H522; first compound 6.325 µM): 0.743
relative viability (NCI-H522; first compound 20 µM): 0.585
relative viability (COR-L 105; first compound 0.2 µM): 0.356
relative viability (COR-L 105; first compound 0.6325 µM): 0.424
relative viability (COR-L 105; first compound 2 µM): 0.339
relative viability (COR-L 105; first compound 6.325 µM): 0.29
relative viability (COR-L 105; first compound 20 µM): 0.292
relative viability (NCI-H1915; first compound 0.2 µM): 0.354
relative viability (NCI-H1915; first compound 0.6325 µM): 0.293
relative viability (NCI-H1915; first compound 2 µM): 0.325
relative viability (NCI-H1915; first compound 6.325 µM): 0.269
relative viability (NCI-H1915; first compound 20 µM): 0.187

Reference: the supplement of paper PMC10307832
